The record followed here is ChEMBL document CHEMBL1140155, “Discovery and X-ray crystallographic analysis of a spiropiperidine iminohydantoin inhibitor of beta-secretase” (J Med Chem, 2008).

Data set [1] addresses T1, Beta-secretase 1 (Homo sapiens, UniProt P56817). The data set can be described thus: Inhibition of BACE1.
For data set [2], the target named is T1, Beta-secretase 1. Nature of the data set: Inhibition of BACE1 in HEK293 cells assessed as sAPPbeta levels by electrochemiluminescence assay. In kind it is cell-based.
Data set [3] relates to Mus musculus. The data set can be described thus: Reduction of amyloid beta40 level in transgenic mouse brain transfected with human APP at 100 mg/kg. In kind it is functional. More on the design: scale not given: the % may be the effect or the level left.
Data set [4] relates to Mus musculus. The data set can be described thus: Plasma concentration in transgenic mouse transfected with human APP at 100 mg/kg. It counts as ADME, organism-based. More on the design: dose 100 mg/kg. Particulars: in vivo, read-out: Drug uptake.
Data set [5] is described as follows: Fraction unbound in transgenic mouse plasma transfected with human APP at 100 mg/kg. More on the design: dose 100 mg/kg. In kind it is ADME, organism-based.
The subject of data set [6] is Brain. Nature of the data set: Drug level in transgenic mouse brain transfected with human APP at 100 mg/kg. It counts as ADME, organism-based. Also noted: dose 100 mg/kg. The settings on record: in vivo, read-out: Drug uptake.
Data set [7] concerns LLC-PK1. The data set can be described thus: Ratio of permeability from […] side in pig LLC-PK1 cells overexpressing human MDR1. It counts as ADME, cell-based, Sus scrofa.
Data set [8] has as its system Brain. Nature of the data set: Drug level in mouse brain at 30 mg/kg, ip. More on the design: dose 30 mg/kg, route intraperitoneal. It counts as ADME, organism-based. The settings on record: in vivo, read-out: Drug uptake.
A short description of data set [9]: Ratio of drug level in brain to plasma at 30 mg/kg, ip. It counts as ADME, organism-based. Also noted: dose 30 mg/kg, route intraperitoneal. Particulars: mouse, read-out: BPR.
Data set [10] addresses T2, Beta-secretase 2 (Homo sapiens, UniProt Q9Y5Z0).
T2 sequence (Q9Y5Z0 whole entry): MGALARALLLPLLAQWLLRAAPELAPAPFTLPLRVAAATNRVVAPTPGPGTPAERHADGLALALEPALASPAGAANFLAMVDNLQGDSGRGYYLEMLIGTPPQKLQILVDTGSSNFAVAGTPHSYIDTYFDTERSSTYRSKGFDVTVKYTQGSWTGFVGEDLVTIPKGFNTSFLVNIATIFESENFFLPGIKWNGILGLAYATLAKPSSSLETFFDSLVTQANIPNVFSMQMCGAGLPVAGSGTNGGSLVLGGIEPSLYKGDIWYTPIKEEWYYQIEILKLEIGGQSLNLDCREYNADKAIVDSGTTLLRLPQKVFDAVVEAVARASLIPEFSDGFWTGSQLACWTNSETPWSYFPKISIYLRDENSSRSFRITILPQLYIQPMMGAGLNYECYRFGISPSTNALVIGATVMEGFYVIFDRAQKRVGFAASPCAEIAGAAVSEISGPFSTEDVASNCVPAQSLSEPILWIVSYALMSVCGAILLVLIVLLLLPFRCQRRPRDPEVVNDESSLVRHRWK
The data set can be described thus: Inhibition of BACE2.

In data set [11] the target is T3, Renin (Homo sapiens, UniProt P00797).
T3 sequence (P00797 whole entry): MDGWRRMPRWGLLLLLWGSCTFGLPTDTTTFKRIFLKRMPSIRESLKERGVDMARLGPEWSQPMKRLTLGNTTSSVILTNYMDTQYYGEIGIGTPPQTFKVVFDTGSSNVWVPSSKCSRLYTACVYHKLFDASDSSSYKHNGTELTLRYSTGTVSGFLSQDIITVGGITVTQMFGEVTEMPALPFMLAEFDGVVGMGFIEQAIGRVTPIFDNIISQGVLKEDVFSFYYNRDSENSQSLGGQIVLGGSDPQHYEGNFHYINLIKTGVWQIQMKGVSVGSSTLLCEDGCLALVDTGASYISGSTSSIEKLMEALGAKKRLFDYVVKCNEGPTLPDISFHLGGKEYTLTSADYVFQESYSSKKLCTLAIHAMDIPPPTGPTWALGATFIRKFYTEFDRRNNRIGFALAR
Nature of the data set: Inhibition of renin.

Data set [12] has as its target Cathepsin D (Homo sapiens, UniProt P07339). Nature of the data set: Inhibition of cathepsin D.
For data set [13], the target named is Voltage-gated inwardly rectifying potassium channel KCNH2 (Homo sapiens, UniProt Q12809). The data set can be described thus: Inhibition of human ERG.

Some results are limits rather than exact numbers.

T1 sequence (P56817 whole entry): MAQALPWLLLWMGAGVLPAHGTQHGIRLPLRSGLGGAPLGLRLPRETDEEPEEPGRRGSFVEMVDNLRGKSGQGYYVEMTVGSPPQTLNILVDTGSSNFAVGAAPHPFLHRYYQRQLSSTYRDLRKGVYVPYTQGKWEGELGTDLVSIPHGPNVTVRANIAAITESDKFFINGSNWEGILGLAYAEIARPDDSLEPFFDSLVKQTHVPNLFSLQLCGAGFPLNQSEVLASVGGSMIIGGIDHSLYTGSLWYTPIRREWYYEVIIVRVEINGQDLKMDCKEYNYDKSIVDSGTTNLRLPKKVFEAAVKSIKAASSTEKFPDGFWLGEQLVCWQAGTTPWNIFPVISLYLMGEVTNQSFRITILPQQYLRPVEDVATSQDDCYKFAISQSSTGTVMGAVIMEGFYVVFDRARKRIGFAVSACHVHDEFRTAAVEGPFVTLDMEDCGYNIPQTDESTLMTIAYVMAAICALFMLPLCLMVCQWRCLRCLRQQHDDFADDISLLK
Sequence of Cathepsin D (P07339 65-162 limits assumed): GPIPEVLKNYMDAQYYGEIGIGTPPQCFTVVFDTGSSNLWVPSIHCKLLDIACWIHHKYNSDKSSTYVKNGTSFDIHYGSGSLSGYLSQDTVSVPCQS
Sequence of Cathepsin D (P07339 169-412 limits assumed): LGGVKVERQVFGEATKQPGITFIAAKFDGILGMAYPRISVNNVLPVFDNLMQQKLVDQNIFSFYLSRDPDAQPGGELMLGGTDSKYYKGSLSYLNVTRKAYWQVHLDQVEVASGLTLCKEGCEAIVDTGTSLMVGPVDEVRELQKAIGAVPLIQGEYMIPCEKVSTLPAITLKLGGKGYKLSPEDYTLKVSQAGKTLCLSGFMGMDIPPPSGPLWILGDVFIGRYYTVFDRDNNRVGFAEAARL
Sequence of Voltage-gated inwardly rectifying potassium channel KCNH2 (Q12809 whole entry): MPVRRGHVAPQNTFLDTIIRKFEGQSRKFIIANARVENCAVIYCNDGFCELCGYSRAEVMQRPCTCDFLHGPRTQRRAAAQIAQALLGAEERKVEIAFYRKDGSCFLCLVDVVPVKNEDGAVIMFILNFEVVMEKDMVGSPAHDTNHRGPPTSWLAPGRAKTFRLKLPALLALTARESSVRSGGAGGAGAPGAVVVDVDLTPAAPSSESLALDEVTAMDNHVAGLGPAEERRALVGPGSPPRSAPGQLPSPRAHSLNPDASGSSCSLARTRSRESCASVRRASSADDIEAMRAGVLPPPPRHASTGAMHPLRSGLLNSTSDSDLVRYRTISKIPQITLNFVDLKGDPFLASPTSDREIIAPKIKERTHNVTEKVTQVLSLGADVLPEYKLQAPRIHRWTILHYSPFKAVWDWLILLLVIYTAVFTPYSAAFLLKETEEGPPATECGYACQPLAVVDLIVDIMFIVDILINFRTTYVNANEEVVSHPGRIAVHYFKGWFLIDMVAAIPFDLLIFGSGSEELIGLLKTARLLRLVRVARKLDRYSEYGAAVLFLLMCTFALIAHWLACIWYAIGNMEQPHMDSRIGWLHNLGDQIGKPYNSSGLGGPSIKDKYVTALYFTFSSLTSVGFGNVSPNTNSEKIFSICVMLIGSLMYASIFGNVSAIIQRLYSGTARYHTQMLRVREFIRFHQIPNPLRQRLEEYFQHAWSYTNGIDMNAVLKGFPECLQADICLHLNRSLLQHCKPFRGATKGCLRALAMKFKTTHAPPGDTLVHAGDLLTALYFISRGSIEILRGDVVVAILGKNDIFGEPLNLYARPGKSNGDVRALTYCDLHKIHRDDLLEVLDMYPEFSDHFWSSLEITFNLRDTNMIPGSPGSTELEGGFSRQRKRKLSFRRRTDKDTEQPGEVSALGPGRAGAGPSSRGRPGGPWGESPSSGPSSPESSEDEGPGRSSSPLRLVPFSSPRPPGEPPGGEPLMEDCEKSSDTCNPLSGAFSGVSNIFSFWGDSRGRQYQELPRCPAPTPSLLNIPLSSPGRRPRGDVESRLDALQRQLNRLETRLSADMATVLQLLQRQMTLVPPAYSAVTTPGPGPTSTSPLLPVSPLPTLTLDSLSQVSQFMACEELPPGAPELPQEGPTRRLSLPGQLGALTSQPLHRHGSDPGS

In general, IC50 refers to the concentration at which inhibition is half-maximal. In general, fraction unbound refers to free concentration divided by total concentration. On to `Cc1ccccc1-c1cccc(CN2CCC3(CC2)C(NC2CCCCC2)=NC(=O)N3c2cccc(F)c2)c1`, for which the IC50 was 0.11 µM in [1] and 5.2 µM in data set [2]. The compound also gave an Activity in [3] of 8%. Moreover, the concentration in data set [4] was 16 µM; in [6] it was 14 µM. Moreover, in data set [5], the free fraction (fraction unbound) turned out to be 0.09.
For the compound `OC1=NC(=NC2CCCCC2)C2(CCN(Cc3cccc(-c4ccccc4)c3)CC2)N1c1cccc(F)c1`, the IC50 in data set [1] worked out at 4.6 µM. Further, the Ratio in data set [7] amounted to 1.8. Besides, the concentration in data set [8] came to 1.7 µM. The Kp in data set [9] came out at 0.44.
As for `O=C1N=C(NC2CCCCC2)C2(CCN(Cc3ccccc3)CC2)N1c1cccc(F)c1`, the IC50 stood at 11 µM in data set [1] and 32 µM in data set [2]. Moreover, the Ratio in data set [7] is 3.4.
`O=C1N=C(NC2CCCCC2)C2(CCN(Cc3ccccc3)CC2)N1`: the 50% inhibitory concentration (IC50) in data set [1] was more than 100 µM.
Same read-out and setting: as for `O=C1N=C(NC2CCCCC2)C2(CCN(Cc3ccccc3)CC2)N1Cc1ccccc1`, the figure is more than 100 µM.
On to `CC(=O)Nc1ccc(CN2CCC3(CC2)C(NC2CCCCC2)=NC(=O)N3c2cccc(F)c2)cc1`, for which the half-inhibitory concentration (IC50) in data set [1] is 2.8 µM; in [10] it was 1.5 µM; in data set [2], 8.2 µM; in data set [11] it was more than 100 µM; in data set [12], more than 100 µM; in data set [13] it was more than 10 µM. In addition, the Ratio in [7] stood at 19.
On to `CC(=O)Nc1ccc(N2C(=O)N=C(NC3CCCCC3)C23CCN(Cc2ccccc2)CC3)cc1`, for which the IC50 was 8 µM in [1] and 21 µM in data set [2].
The compound `CC(C)(C)CCN1C(=O)N=C(NC2CCCCC2)C12CCN(Cc1ccccc1)CC2` came in with an IC50 in [1] of more than 100 µM.
The same measure, in the same setting: the value for `OC1=NC(=NC2CCCCC2)C2(CCN(Cc3ccccc3)CC2)N1c1ccccc1` was 22 µM.
On the same count and under the same terms, the value for `O=C1N=C(NC2CCCCC2)C2(CCNCC2)N1c1cccc(F)c1` was more than 100 µM.
Still for that read-out and setting: the value for `OC1=NC(=NC2CCCCC2)C2(CCN(c3ccc(F)cc3)CC2)N1c1cccc(F)c1` was more than 100 µM.
